# In US6441206B1, “Use of organic acid esters in dietary fat” (Raisio Benecol Ltd., priority 1997, dated 2002):
# Experiments:
# cholesterol absorption [1] = conditions: cited from earlier work; for cholesterol absorption lowering effect: molar quantities of the fatty acid esters
# blood cholesterol = conditions: in vivo; cited from earlier work
# total serum cholesterol = conditions: daily supply of plant sterol 2-3 g; cited from earlier work
# [2] = solubility in alcohol (ethanol) and lipids; assay type: physicochemical
# Source text: According to one preferred embodiment of the invention, β-sitosterols are esterified and sterol esters are hydrogenated to form stanols. […] This achieves the significant advantage that hydrogenation can be carried out at room temperature.
# Di-β-sitosteryl citrate is formed in a heterogeneous reaction between citric acid and β-sitosterol, at the same reaction conditions as described in the previous section. The compound is separated from the sterol monocitrate on the basis of solubility, using ethanol extraction. The method is based on the fact that the solubility of sterol monocitrate in ethyl alcohol is ten times that of di-β-sitosteryl citrate.
# A minimum of 7 ml of water was azeotropically distilled from the reaction mixture over 7-8 hours; as the conversion approached theoretical, upon cooling no lactic acid or plant sterols were crystallized from the reaction mixture. The cooled reaction mixture was a yellowish, viscose liquid. The toluene was removed from the reaction mixture in a vacuum (29 mmHg) at a temperature of 80-90° C. […] As a whole, the material obtained was useable and contained very little or no free plant sterols and/or lactic acid.
# [3] = test system: triglyceride content of the blood serum; conditions: rats; cited from earlier work
# [4] = test system: triglyceride content of liver; conditions: cited from earlier work
# white male mice = conditions: 3.5 g dose per 1 kg live weight; cited from earlier work
# cholesterol absorption [5] = conditions: infusion test; cited from earlier work
# [6] = thermal resistance of light spread at 45° C.; assay type: physicochemical; conditions: fat component with 5% ester, 45° C. up to 4 hours, mixed after return to room temperature
# Description: The polarity of the sterol/stanol esters described above is an extremely useful property. It is characteristic of compounds according to the invention, e.g. β-sitosterol dicarboxylic acid hemiesters and citrates that in lipid solutions (e.g. 2.5-5% of the fat component) they promote the mixing of the lipid and the water. […] The prepared light spread also lasted better than the comparative sample when heated to 45° C. for up to 4 hours. By improved thermal resistance is meant that after 2 hours at 45° C., more oil had separated from the comparative sample than from the sterol-containing sample. Over the next 2 hours, the separation of oil from the comparative sample continued. In the sterol-containing spread, however, negative change had ceased.
# [7] = soluble matter in spirit vinegar (10 weight-% acetic acid); assay type: physicochemical; conditions: spirit vinegar with 10 weight-% acetic acid; 12 hours standing without stirring
# Source text: 6.80 g β-sitosterol citrate from example 12 90.7 g Rajamäki Spirit Vinegar (Primalco Oy, Nurmijärvi), containing 10 weight-% acetic acid.
compound,measurement,setting,value
decanoate,cholesterol absorption lowering effect,cholesterol absorption [1],equally as effective
soy sterol-2-carbamate glutaric acid K^+—salt,lowering blood cholesterol concentrations,blood cholesterol,proved to lower blood cholesterol concentrations
CC[C@H](CC[C@@H](C)[C@H]1CC[C@H]2[C@@H]3CC[C@H]4C[C@@H](O)CC[C@]4(C)[C@H]3CC[C@]12C)C(C)C [sitostanol],total serum cholesterol,total serum cholesterol,decrease in the total serum cholesterol
CC(=O)O [acetate],cholesterol absorption lowering effect,cholesterol absorption [1],equally as effective
"CC[C@H](CC[C@@H](C)[C@H]1CC[C@H]2[C@@H]3CC=C4C[C@@H](OC(=O)C(C)O)CC[C@]4(C)[C@H]3CC[C@]12C)C(C)C (stereo partly drawn) [Example 19, β-sitosterol Lactate]",solubility in alcohol,[2]; in words,highly soluble in alcohol
same,solubility in lipids and ethanol,"[2]; reaction product, viscose liquid at 60-100° C.",soluble in lipids and ethanol
"CC[C@H](CC[C@@H](C)[C@H]1CC[C@H]2[C@@H]3C[C@@H](OC=O)[C@@]4(O)C[C@@H](OC=O)CC[C@]4(C)[C@H]3CC[C@]12C)C(C)C [sitostane-3β-, 5α-, 6β-triol-3,6-diformiate]",lowering of triglyceride content of the blood serum,[3],moderately lower
same,lowering of triglyceride content of liver,[4]; guinea pigs,54%
same,acute toxicity,white male mice,did not show toxicity
CC[C@H](CC[C@@H](C)[C@H]1CC[C@H]2[C@@H]3CC=C4C[C@@H](O)CC[C@]4(C)[C@H]3CC[C@]12C)C(C)C [β-sitosterol],inhibition of cholesterol absorption,cholesterol absorption [5],50%
same,response in this test,"[4]; source material as comparison, which test is meant is not clear",did not give a positive response
"CCC(CCC(C)C1CCC2C3CC=C4CC(OC(=O)CCC(=O)O)CCC4(C)C3CCC12C)C(C)C (stereo not drawn) [Example 3, β-sitosterol Hydrogen Succinate]",lowering of the cholesterol content of blood,cholesterol absorption [1]; compared with phytosterol monocarboxyl acid esters,as effectively as the phytosterol monocarboxyl acid esters
same,changes in the sample after heating,[6],almost reversible
β-sitosterol citrate [Example 12],amount of the sterol citrate dissolved,[7],0.74%
CC[C@H](CC[C@@H](C)[C@H]1CC[C@H]2[C@@H]3CC[C@H]4C[C@@H](O)CC[C@]4(C)[C@H]3CC[C@]12C)C(C)C [β-sitostanol],inhibition of cholesterol absorption,cholesterol absorption [5],83%
oleate,cholesterol absorption lowering effect,cholesterol absorption [1],equally as effective
